Measurements from PMC8707700, “Ru(III) Complexes with Lonidamine-Modified Ligands” (International Journal of Molecular Sciences, 2021).
Where two headings read alike, the source gives them in different places.

Tests used:
A549 = assay: Antiproliferative activity, MTT assay; format: cell-based, human; conditions: read-out: IC50, µM A549
Description: (§1) The antiproliferative activity of new ligands and complexes was determined against human cell lines, including colon adenocarcinoma SW480, breast adenocarcinoma MCF-7, lung adenocarcinoma A549, neuroblastoma SHSY5Y, and non-tumourigenic HaCaT (Table 4). In general, complexes were more cytotoxic compared to ligands, lonidamine, and, in some cases, cisplatin. […] We chose this compound and the synthetically accessible complex 16 for mechanistic studies.
(§2) The antiproliferative activity was studied by MTT assays as published previously. For flow cytometry studies, cells were plated into 6-well plates (Eppendorf, Germany; 4 × 10^5 cells in 2 mL of DMEM) and incubated for 24 h. Solutions of complexes in DMSO were prepared immediately prior to the day of the experiments. Cells were treated with either 20 µM of cisplatin, 50 µM of 16, or 20 µM of 20. Concentrations corresponded to two-fold IC50 values based on MTT assays. Cells were incubated for 24 h, pooled, washed with cold PBS, and resuspended in DMEM. Aliquots of cells were processed as recommended in the Muse Annexin V&Dead Cell Kit or Muse Caspase-3/7 Kit (Luminex). Measurements were carried out on a Muse Cell Analyser, Luminex corp., TX, USA.

HaCaT = assay: Antiproliferative activity, MTT assay; format: cell-based, human; conditions: read-out: IC50 HaCaT
Description: as §1, §2

SW480 = assay: Antiproliferative activity, MTT assay; format: cell-based, human; conditions: read-out: IC50, µM SW480
Description: as §1, §2

SH-SY5Y = assay: Antiproliferative activity, MTT assay; format: cell-based, human; conditions: 72 h exposure, mean ± SD
Description: as §1, §2

MCF-7 = assay: Antiproliferative activity, MTT assay; format: cell-based, human; conditions: read-out: IC50, µM MCF-7
Description: as §1, §2

HCT116 cells = assay: Annexin V/7-AAD flow cytometry (Muse Annexin V & Dead Cell Kit); format: cell-based; conditions: HCT116, 24 h, 2xIC50; one representative experiment
Description: Mechanisms of cell death, that is, Annexin V/7-AAD reactivity and caspase 3/7 activation, were determined for 16 and 20 in HCT116 cells using the Muse® Annexin V & Dead Cell Kit (Luminex corp., Austin, TX, USA) and flow cytometry. Cells were incubated with 16, 20, or cisplatin (reference drug) for 24 h at concentrations corresponding to 2xIC50 values (obtained in MTT assays; Table 4). The percentages of Annexin V-positive cells in response to 16 and 20 were higher than cisplatin (Figure 8). Complex 20 with the C12 linker induced Annexin V positivity slightly more efficiently than 16 with the C3 linker (27.4 ± 2.1% vs. 19.7 ± 0.6%).
as §2

[1] = Cyclic voltammetry (redox potentials); format: physicochemical; conditions: Pt and GC electrodes, CH3CN and CH2Cl2, any applied potential
Description: The redox behaviour of ligand 10 and complexes 15–20 was studied on Pt and glassy carbon (GC) electrodes in CH3CN and CH2Cl2.
All electrochemical measurements were carried out under argon at room temperature. Cyclic voltammetry (CV) experiments were performed in KO264 PAR three-electrode microcells in CH3CN solution with 0.05 M of Bu4NBF4 as a supporting electrolyte using a IPC-Win potentiostat. The number of transferred electrons was determined by comparing to the height of the […] wave for the same concentration. A glassy carbon (GC) working electrode (diameter 2 mm), a platinum wire auxiliary electrode, and an aqueous Ag/AgCl/KCl (sat.) reference electrode was used. Solvents were routinely distilled and dried prior to use.

[2] = Stability of Ru(III) complexes in phosphate buffer by UV-vis spectrophotometry; format: physicochemical; conditions: 20 mM phosphate buffer pH 7.4, 100 mM NaCl, 37 °C; mean ± SD, three experiments
Description: The stability of Ru(III) complexes (15–20) was investigated in a solution resembling physiological conditions (20 mM of phosphate buffer, pH 7.4, and 100 mM of NaCl at 37 °C) by UV-vis spectrophotometry (Table 1). The half-transformation time t1/2 was calculated based on changes in the electronic absorption spectrum (Figure S1) and defined as the value of t at the Alin/2 point. ΔA(t) was plotted against λmax; the initial section was approximated as a linear function.
The stability of Ru(III) complexes was studied by electron absorption spectroscopy in 20 mM of phosphate buffer, pH 7.4, and 100 mM of NaCl. The working solution (2 mL, 200 μM complex) was prepared by diluting 10 μL of the original 40 mM solution in DMSO and 1.99 mL of phosphate buffer. UV-vis spectra were recorded every 60 s in the range of 280–600 nm at 37 °C. The half-transformation time was t1/2. For λmax, ΔA(t) was plotted, where ΔA = A0–Ai, an initial section, was approximated as a linear function. At ΔAline./2 point calculated as t = t1/2.

[3] = Lipophilicity, shake-flask method water/n-octanol; format: physicochemical; conditions: UV-vis, mean ± SD
Description: The lipophilicity of complexes 15–20 was studied using a standard shake-flask method in a mixture of water/n-octanol. For the quantification of compounds in the water phase, UV-vis spectrophotometry was used. […] Among other complexes, as expected, 20 was the most lipophilic (Table 1).
N-octanol was saturated with water and with water saturated with n-octanol; mixture400 mL of n-octanol (water) and 100 mL of water (n-octanol) was stirred for 24 h; and then fractions were separated. The sample of the complex was dissolved in n-octanol and a series of solutions in octanol (300, 250, 3 × 200, 150, 100, and 50 μM) was prepared. Absorption spectra were recorded and the calibration curve for maximum absorption was plotted. From 200 μM solutions, the mixtures with water were prepared (1:1, 1:2, 2:1 v/v) and shaken for 15 min. The organic phase was separated by centrifugation. The concentration of the complex in n-octanol was determined from the calibration curve and lipophilicity (logP) was calculated as log P = log [(C0–Caq)/Caq].

| Compound | IC50 (A549; MTT, 72 h exposure, mean ± SD) [µM] | IC50 (SW480; MTT, 72 h exposure, mean ± SD) [µM] | IC50 (SH-SY5Y) [µM] | IC50 (MCF-7; MTT, 72 h exposure, mean ± SD) [µM] | IC50 (A549; Homo sapiens, A549, 72 h) [µM] | IC50 (HaCaT; Homo sapiens, HaCaT, 72 h) [µM] | IC50 (SW480; Homo sapiens, SW480, 72 h) [µM] | IC50 (MCF-7; Homo sapiens, MCF7, 72 h) [µM] | melting point [°C] | t1/2 (half-transformation time) [2] [min] | also measured |
| --- | --- | --- | --- | --- | --- | --- | --- | --- | --- | --- | --- |
| N.N.[Cl][Pt][Cl] [cisplatin, reference compound] | 23 ± 6.5 | 21.7 ± 0.5 | 9.5 ± 0.1 | > 30 |  |  |  |  |  |  | IC50 (HaCaT; MTT, 72 h exposure, non-tumourigenic cells, mean ± SD): 10 ± 5 µM; early apoptosis (Annexin V/7-AAD) (HCT116 cells): 4%; late apoptosis (Annexin V/7-AAD) (HCT116 cells): 8%; live cells (Annexin V/7-AAD) (HCT116 cells): 88%; necrosis (Annexin V/7-AAD) (HCT116 cells): 0% |
| O=C(NCCCCCCCCn1ccnc1)c1nn(Cc2ccc(Cl)cc2Cl)c2ccccc12 [Compound 13, N-(8-(1H-Imidazol-1-yl)octyl)-1-(2,4-dichlorobenzyl)-1H-indazole-3-carboxamide] |  |  |  |  | 15 ± 6 | 45 ± 2 | > 90 | 10 ± 2 |  |  |  |
| O=C(NCCCn1ccnc1)c1nn(Cc2ccc(Cl)cc2Cl)c2ccccc12 [Compound 10, N-(3-(1H-Imidazol-1-yl)propyl)-1-(2,4-dichlorobenzyl)-1H-indazole-3-carboxamide] |  |  |  |  | > 90 | 39 ± 4 | > 90 | > 90 | 121 to 122 |  | redox transitions of the ligand [1]: redox transitions were not observed |
| O=C(O)c1nn(Cc2ccc(Cl)cc2Cl)c2ccccc12 [lonidamine, 1-(2,4-dichlorobenzyl)-1H-indazole-3-carboxylic acid] |  |  |  |  |  |  |  |  |  |  | IC50 (A549; Homo sapiens, A549, MTT, 72 h exposure, mean ± SD): > 90 µM; IC50 (HaCaT; Homo sapiens, HaCaT, MTT, 72 h exposure, non-tumourigenic cells, mean ± SD): 3 ± 1 µM; IC50 (SW480; Homo sapiens, SW480, MTT, 72 h exposure, mean ± SD): > 90 µM; IC50 (SH-SY5Y; Homo sapiens, SH-SY5Y): > 30 µM; IC50 (MCF-7; Homo sapiens, MCF7, MTT, 72 h exposure, mean ± SD): 30 ± 10 µM |
| O=C(NCCn1ccnc1)c1nn(Cc2ccc(Cl)cc2Cl)c2ccccc12 [Compound 9, N-(2-(1H-Imidazol-1-yl)ethyl)-1-(2,4-dichlorobenzyl)-1H-indazole-3-carboxamide] |  |  |  |  | 50 ± 16 | 23 ± 2 | 48 ± 10 | 35 ± 6 | 120 to 121 |  |  |
| Na[trans-Ru(DMSO)(C22H21Cl2N5O)Cl4] [Compound 17] | > 30 | 21 ± 1.8 | 27.7 ± 3.3 | > 30 |  |  |  |  |  | 6 ± 0.333 |  |
| O=C(NCCCCn1ccnc1)c1nn(Cc2ccc(Cl)cc2Cl)c2ccccc12 [Compound 11, N-(4-(1H-Imidazol-1-yl)butyl)-1-(2,4-dichlorobenzyl)-1H-indazole-3-carboxamide] |  |  |  |  | 25 ± 7 | 45 ± 3 | 28 ± 8 | 22 ± 6 | 98 to 100 |  |  |
| O=C(NCCCCCCn1ccnc1)c1nn(Cc2ccc(Cl)cc2Cl)c2ccccc12 [Compound 12, N-(6-(1H-Imidazol-1-yl)hexyl)-1-(2,4-dichlorobenzyl)-1H-indazole-3-carboxamide] |  |  |  |  | 24 ± 10 | 40 ± 4 | 16 ± 6 | 17 ± 2.5 |  |  |  |
| Na[trans-Ru(DMSO)(C20H17Cl2N5O)Cl4] [Compound 15] | > 30 | 21.4 ± 1.8 | 25.8 ± 4.5 | 20.4 ± 0.1 |  |  |  |  |  | 6 ± 0.333 |  |
| O=C(NCCCCCCCCCCCCn1ccnc1)c1nn(Cc2ccc(Cl)cc2Cl)c2ccccc12 [Compound 14, N-(12-(1H-Imidazol-1-yl)dodecyl)-1-(2,4-dichlorobenzyl)-1H-indazole-3-carboxamide] |  |  |  |  | 15 ± 2.2 |  | 8.4 ± 1.6 | 20.8 ± 4.7 | 86 to 88 |  |  |
| Na[trans-Ru(DMSO)(C26H29Cl2N5O)Cl4] [Compound 19] | 5.9 ± 2.6 | 9.3 ± 0.1 | 2.64 ± 1.5 | 17.1 ± 0.3 |  |  |  |  |  | 23.17 ± 1.17 |  |
| Na[trans-Ru(DMSO)(C24H25Cl2N5O)Cl4] [Compound 18] | 12.9 ± 1 | 19.6 ± 3.9 | 5.1 ± 2.5 | 22 ± 0.7 |  |  |  |  |  | 10.8 ± 0.5 | Log P [3]: 0.6 ± 0.1 |
